{"source": "patent US7273723B2", "about": "“Antibiotic-based gene regulation system” (priority 2001, dated 2007)", "key": {"[1]": {"test_system": "ET1/PETR3 positive feedback expression unit", "assay": "Autoregulated pWW46 (PETR3-CFP-IRES-ET1-pA) CFP expression by fluorescence microscopy", "type": "cell-based", "conditions": "pWW46 in CHO-K1, HeLa, COS-7 or HEK 293-T cells; erythromycin 2 μg/ml", "from_the_text": "These positive feedback regulation vectors that were constructed contain both the cyan fluorescent protein CFP and ET1 in a dicistronic, PETR3-driven configuration."}, "[2]": {"test_system": "PIT / pristinamycin-responsive promoter PPIR", "assay": "SEAP assay in CHO-Triplet42 transfected with PPIR-SEAP (pMF172)", "type": "cell-based", "conditions": "CHO-Triplet42 + pMF172 (PPIR); antibiotic 2 μg/ml; 48 h", "experimental": "(§1) Chinese hamster ovary cells (CHO-K1, ATCC: CCL 61), and HeLa cells (ATCC: CRL-7923) as well as stable cell lines derived thereof were cultured as described before (Fussenegger et al., 1998, Nat. Biotechnol. 16,468-472) in the presence of appropriate antibiotics: G418 400 μg/ml; zeocin 100 μg/ml. Optimized CaPO4 protocols were used for high efficiency transient transfection of all cell lines (Fussenegger et al., 1998. Nat. Biotechnol. 16: 468-472). Transiently transfected cells were routinely analyzed after 48 h for CFP or SEAP expression using fluorescence microscopy and p-nitrophenolphosphate-based light absorbance timecourse, respectively, as described before (Fussenegger et al., 1998, Nat. Biotechnol. 16, 468-472; Berger et al., 1988, Gene 66, 1-10 b). For construction of stable CHO-ET1 and CHO-Triplet42 cell lines, CHO-Ki and CHO-TWIN1108 (Disclosed in PCT application no. 00/65080) were cotransfected with pWW35 and pZeoSV2 (invitrogen). CHO-ET11-SEAP was constructed by cotransfection of pWW38 and pSV2neo (Clontech) into CHO-ET11. The mixed populations were cloned using FACS-mediated single-cell-sorting (FACStar^Plus; Beckton Dickinson). For assessment of dose-response characteristics of PETR3-regulated gene expression, CHO-ET11-SEAP were cultured at cell densities of 50,000/ml for 48 h at various EM concentrations.\n(§2) Other antibiotics were eluted from antibiotic test discs (Mast Diagnostica GmbH, Reinfeld, Germany, or bioMérieux, Geneva Switzerland) in cell culture medium at 37° C. for 12 h to reach a final concentration of 30 μg/ml. All macrolide antibiotics were used at a 2 μg/ml concentration unless indicated otherwise.\nThe regulation performance of the EM-based regulation system was compared directly with the widely used TET- and PIP responsive expression concepts. To this end, we have constructed a stable CHO-K1-derived cell line expressing ET1, PIT and tTA (CHO-Triplet42). […] CHO-Triplet42 was transfected with either isogenic (i) PETR3-(pWW38), (ii) a PPIR-(pristinamycin-responsive promoter, pMF172, Fussenegger et al., 2000. supra.), or (iii) a PhCMV*-1-(tetracycline-responsive promoter, pMF111, Fussenegger et al., 2000. supra) driven SEAP expression vector to assess the individual regulation performance of the three antibiotic-responsive gene regulation systems in CHO cells (Table 5).\nTo analyze the relative regulatory characteristics, we evaluated induction factors (IF; ratio of maximal expression level to antibiotic-repressed expression level).\nThese repressive effects are still in a range which is tolerable for use in potential medical applications."}, "[3]": {"test_system": "erythromycin-dependent transactivators ET (MphR(A) fusions) / PETR promoters", "assay": "SEAP reporter assay, CHO-K1 transiently cotransfected with ET transactivator and PETR-SEAP plasmids", "type": "cell-based, Chinese hamster", "experimental": "as §1, §2\nIn order to analyze the potential of the MphR(A)/ETR system for the design of a novel mammalian gene regulation system, we adapted these regulatory elements for use in a eukaryotic context by construction of a set of two chimeric determinants: the EM-inhibited transactivators (ET, MphR(A) fused to different eukaryotic transactivation domains: ET1: MphR(A)-VP16; ET2: MphR(A)-p65; ET3: MphR(A)-E2F4) and the EM-responsive promoter (PETR3) (ETR fused to the minimal cytomegalovirus PhCMVmin; Gossen et al., (1992). Proc. Natl. Acad. Sci. USA 89, 5547-5551). […] CFP-expression could only be detected when pWW44 was cotransfected with an ET1-encoding pWW35, showing that the chimeric ET1 protein functions as a transactivator for PETR3 in mammalian cells.\nTo analyze the regulatory performance of promoters PETR1 and PETR4, an ET1-encoding vector (pWW35) was cotransfected with pWW36 and pWW39 into CHO-K1 cells. […] The results are shown in Table 6 together with the values of an ET1/PETR3 transfection (Table 5) for better comparison."}}}
{"smiles": "CC[C@H]1OC(=O)[C@H](C)[C@@H](O[C@H]2C[C@@](C)(OC)[C@@H](O)[C@H](C)O2)[C@H](C)[C@@H](O[C@@H]2O[C@H](C)C[C@H](N(C)C)[C@H]2O)[C@](C)(O)C[C@@H](C)C(=O)[C@H](C)[C@@H](O)[C@]1(C)O", "note": "[Erythromycin]", "values": [{"measurement": "CFP-expression (fluorescence microscopy)", "setting": "[1]", "result": "completely repressed"}, {"measurement": "SEAP activity [U/L]", "setting": "[2]", "result": "10.1 ± 1.5", "unit": "U/L"}, {"measurement": "SEAP activity [U/L] + Erythromycin [10 μg/ml]", "setting": "[3]; CHO + pBP37 + pWW38 (ET5 + PETR3), 48 hr", "result": "12.1 ± 1.5", "unit": "U/L"}, {"measurement": "SEAP activity [U/L] + Erythromycin [10 μg/ml]", "setting": "[3]; CHO + pBP38 + pWW38 (ET6 + PETR3), 48 hr", "result": "5.8 ± 0.5", "unit": "U/L"}, {"measurement": "SEAP activity [U/L] + Erythromycin [10 μg/ml]", "setting": "[3]; CHO + pBP39 + pWW38 (ET7 + PETR3), 48 hr", "result": "2.3 ± 0.2", "unit": "U/L"}, {"measurement": "SEAP activity [U/L] + Erythromycin [10 μg/ml]", "setting": "[3]; CHO + pWW35 + pWW36 (ET1 + PETR1-SEAP), 48 hrs", "result": "5.3 ± 0.6", "unit": "U/L"}, {"measurement": "SEAP activity [U/L] + Erythromycin [10 μg/ml]", "setting": "[3]; CHO + pWW35 + pWW38 (ET1 + PETR3), 48 hr post transfection", "result": "5.2 ± 0.5", "unit": "U/L"}, {"measurement": "SEAP activity [U/L] + Erythromycin [10 μg/ml]", "setting": "[3]; CHO + pWW35 + pWW39 (ET1 + PETR4-SEAP), 48 hrs", "result": "29.3 ± 0.6", "unit": "U/L"}, {"measurement": "SEAP activity [U/L] + Erythromycin [10 μg/ml]", "setting": "[3]; CHO + pWW42 + pWW38 (ET2 + PETR3), 48 hr", "result": "2.5 ± 0.6", "unit": "U/L"}, {"measurement": "SEAP activity [U/L] + Erythromycin [10 μg/ml]", "setting": "[3]; CHO + pWW64 + pWW38 (ET3 + PETR3), 48 hr", "result": "1.0 ± 0.4", "unit": "U/L"}]}
